Experimental data reported in patent US10835493B2, “Platelet-like proteo-microparticles and method of using such in drug delivery” (Academia Sinica, priority 2015, dated 2020).

Columns and labels:
[1] = system: HO-1 expression in RAW264.7 cells; test: CoPP-induced HO-1 expression in RAW264.7 cells (western blotting); format: cell-based, murine; conditions: 4 hours exposure then overnight
Method: (§1) FIGS. 10A-10C show in vitro analysis of CoPP-induced expression of HO-1. FIG. 10A is a schematic diagram showing the relationship between CoPP, HO-1 and bilirubin. […] The cells were then placed back in a 37° C. incubator overnight before subjecting to western blotting (FIG. 10B). FIG. 10C presents the specific activity of the induced HO-1 in every treated sample, in catalyzing heme into bilirubin (n=6). NT; not treated, CoPP; free CoPP, Lipo+CoPP; liposome-encapsulated CoPP, PLP+CoPP; PLP-encapsulated CoPP. *, P<0.05, ***, P<0.001.
(§2) Samples were separated on 4-12% SDS-polyacrylamide gels (BioRad, US). After transfer to PVDF membrane, primary and secondary antibodies were applied, and the signals were detected with ECL-plus reagent. Primary antibodies against human GPIIb (GTX113758), human CD42c (GTX113355) and β-actin (GTX109639) were purchased from GeneTex (US). The anti-human CD62P (sc-19672) were from Santa Cruz (US). The rabbit polyclonal anti-HO-1 antibodies were made in-house according to Lin et al. ((2013), Arterioscler Thromb Vase Biol 33:785-794).
(§3) The capability of PLP−CoPP to induce HO-1 expression was first investigated in SVECs, RAW264.7 cells and MΦ (FIG. 10B). […] In addition, the enzyme activity of HO-1 in each corresponded to the expression level of enzyme in each of the CoPP-treated samples.

I/R injured hearts = test: PCR of HO-1 and pro-inflammatory genes in I/R injured hearts; format: in vivo, mouse; conditions: i.v. at 72 hours of reperfusion
Excerpt: (§4) FIGS. 6A-6D show therapeutic analysis of PLP−CoPP in a murine model of myocardial I/R injury. […] Subsequent injections were made every 5 days until day 28, at which point the mice were sacrificed. Subsequently, the heart tissues of the mice were sectioned and stained with Masson's trichrome (FIG. 6B). NT; not treated, CoPP; free CoPP, Lipo+CoPP; liposome-encapsulated CoPP, PLP+CoPP; PLP-encapsulated CoPP. Scale bar; 1 mm for the whole section and 100 μm for the higher magnified images.
Total RNA was isolated from a whole heart using TRI Reagent (1 mL/whole heart). Subsequently, 1 μg of RNA was transcribed info cDNA using a random primer mixer (ProtoScript M-MuLV First Strand cDNA synthesis kit, New England BioLabs) and amplified during 35 cycles by PCR, utilizing specific primers (Table 1). The reactants were cycled at 95° C. for 1 min, 58° C. for 1 min, and 72° C. for 1.5 min to enable denaturation, annealing, and extension, respectively. PCR products were then separated on 1% (w/v) agarose gel at 60 V for 1 hour in TBE buffer (80 mM Tris base, 80 mM boric acid, and 2 mM EDTA, pH 8). The gels were stained with Health View Nucleic Acid Stain (Genomics, Taipei, Taiwan) for 30 minutes and then visualized under UV light.

[2] = system: murine model of non-reperfused MI; test: Echocardiographic assessment of cardiac function in murine model of MI; format: in vivo, mouse; conditions: 28 days post MI
Method: FIGS. 7A-7D show echocardiographic assessments of cardiac function and blood chemistry analysis of a murine model of MI injury after PLP−CoPP treatments. […] Treatments were then given every 5 days until day 28, at which point the cardiac function of the mice was assessed by echocardiography (n=8) (FIG. 7B); LVEF, left ventricular ejection fraction; FS, fraction shortening; LVEDV, left ventricular end-diastolic volume; LVESV, left ventricular end-systolic volume; IVSd, interventricular septal thickness at diastole; IVSs, interventricular septal thickness at systole. The blood of the mice was analyzed for biomarkers to assess liver function (FIG. 7C), renal function (FIG. 7D), and cardiac function (FIG. 7E); AST, aspartate aminotransferase; ALT, alanine aminotransferase; TBIL, total bilirubin; BUN, blood urea nitrogen; CRE, creatinine; CKMB, creatine kinase MB, *, P<0.05, ***, P<0.001. […]
The cardiac function in murine models of both I/R and MI was assessed by using a 30-MHz probe (Vevo770; Visual Sonics, Toronto, ON, Canada), following the methods published in Chen et al. ((2015), Stem Cells Trans Med 4:269-275). […] The left ventricular end-diastolic diameter (LVEDD) and end-systolic diameter (LVESD) were measured perpendicular to the long axis of the ventricle at the location of the papillary muscle insertion site. […]

murine model of MI = test: Blood chemistry (serum) analysis in murine model of MI; format: in vivo, mouse; conditions: end of 28-day treatment
Method: FIGS. 7A-7D show echocardiographic assessments of cardiac function and blood chemistry analysis of a murine model of MI injury after PLP−CoPP treatments. […] Treatments were then given every 5 days until day 28, at which point the cardiac function of the mice was assessed by echocardiography (n=8) (FIG. 7B); LVEF, left ventricular ejection fraction; FS, fraction shortening; LVEDV, left ventricular end-diastolic volume; LVESV, left ventricular end-systolic volume; IVSd, interventricular septal thickness at diastole; IVSs, interventricular septal thickness at systole. The blood of the mice was analyzed for biomarkers to assess liver function (FIG. 7C), renal function (FIG. 7D), and cardiac function (FIG. 7E); AST, aspartate aminotransferase; ALT, alanine aminotransferase; TBIL, total bilirubin; BUN, blood urea nitrogen; CRE, creatinine; CKMB, creatine kinase MB, *, P<0.05, ***, P<0.001.
All blood tests were performed by independent staff at the Taiwan Mouse Clinic, Academia Sinica, Taiwan. Male, BALB/c mice, approximately 56 weeks old, were used for all analyses (n=5 per group).
Levels of aspartate transaminase (AST), alanine transaminase (ALT), and total bilirubin in the serum were the biomarkers used to evaluate the hepatotoxicity of CoPP (FIG. 7C). […] Similar results were also seen in the measured serum level of blood urine nitrogen (BUN) and creatinine (CRE), which are biomarkers for renal toxicity (FIG. 7D).

HO-1 expression in SVECs = test: CoPP-induced HO-1 expression in SVECs (western blotting); format: cell-based, murine; conditions: 4 hours exposure then overnight, compared to β-actin
Method: as §1, §2, §3

[3] = system: murine model of I/R injury; test: Infarct area in murine model of myocardial I/R injury (histology); format: in vivo, mouse; conditions: 5 mg/Kg i.v. at 72 hours of reperfusion then every 5 days; vs I/R+saline
Excerpt: as §4
Surgery for myocardial ischemia-reperfusion (I/R) was performed according to the protocol published in Ojha et al. ((2008), Am J Physiol Heart Circ Physiol 294:H2435-H2443). Briefly, the mice were ventilated on room air-isoflurane at an appropriate rate and tidal volume. The heart was accessed via left thoracotomy, in which the left lung was retracted to allow entrance to the pericardium. Subsequently, the left atrium was elevated to expose the left anterior descending coronary artery (LAD), and was isolated using a 7-0 silk suture on a taper needle. The suture was tightened over a piece of polyethylene-10 tubing to provide for reversible ischemia via the occlusion of the coronary artery. Ischemia was allowed to continue for 45 minutes after occlusion. After 45 minutes, the suture was released to allow for reperfusion of the injured myocardium. […]

## C=CC1=C(C)c2cc3[n-]c(cc4nc(cc5[n-]c(cc1n2)c(C)c5CCC(=O)[O-])C(CCC(=O)[O-])=C4C)c(C)c3C=C.[Co+2].[H+].[H+] [CoPP, cobalt protoporphyrin]
[1]
  HO-1 expression: induced strong HO-1 expression
I/R injured hearts
  pro-inflammatory genes TNFα, MCP-1, IL6 and IL1β in the hearts: downregulated
I/R injured hearts; vs saline and Lipo−CoPP
  expression of the HO-1 gene (HMXO1) in the hearts: upregulated
[2]; 5 mg/Kg i.v. from 3 days post-infarction every 5 days
  left ventricular ejection fraction (LVEF, %): No significant difference
[2]
  LVEDV and LVESV: significantly better than the other treatment groups
Murine model of MI
  serum ALT: significantly higher level
  serum BUN and CRE: significantly higher than the other treatment groups
  serum CKMB: significantly lower CKMB levels
HO-1 expression in SVECs
  HO-1 expression: induction of some expression
[3]
  infarct area of the heart: significant reduction
